Experimental data from PubChem BioAssay (NCI).
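Step 1: Grow cells in 96-well plates. Step 2: Expose to compound for 48 hours at 5 concentrations. Step 3: Interpolate endpoints linearly; if unreached, use highest concentration. TGI: concentration producing complete growth inhibition.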

How the values were obtained:
Assay in all cases: NCI-60 cell line screen, 48 h
HT29 colon = tested on: HT29 colon
NCI-H226 lung = tested on: NCI-H226 lung
A549 NSCLC = tested on: A549 NSCLC
MOLT-4 leukemia = tested on: MOLT-4 leukemia
BT-549 breast = tested on: BT-549 breast
SK-OV-3 ovarian = tested on: SK-OV-3 ovarian
SNB-75 CNS = tested on: SNB-75 CNS
786-0 renal = tested on: 786-0 renal
HCT-116 colon = tested on: HCT-116 colon
MDA-MB-231 breast = tested on: MDA-MB-231 breast

Row | SMILES | TGI (HT29 colon) [µM] | TGI (NCI-H226 lung) [µM] | TGI (A549 NSCLC) [µM] | TGI (MOLT-4 leukemia) [µM] | TGI (BT-549 breast) [µM] | TGI (SK-OV-3 ovarian) [µM] | TGI (SNB-75 CNS) [µM] | TGI (786-0 renal) [µM] | TGI (HCT-116 colon) [µM] | TGI (MDA-MB-231 breast) [µM]
1 | COC(=O)/C(=N\N)C(C(=O)C(=O)Nc1cc(Cl)ccc1Cl)c1nc2ccc([N+](=O)[O-])cc2[nH]c1=O (stereo not given) | > 100 | > 100 | > 100 | > 100 | > 100 | > 100 | > 100 | > 100 | > 100 | > 100
2 | COC(=O)C(=O)C(C(=O)C(=O)Nc1cccc(OC)c1)c1nc2ccc(Cl)cc2[nH]c1=O (stereo not given) | > 100 | > 100 | > 100 | > 100 | > 100 | > 100 | > 100 | > 100 | > 100 | > 100
3 | CCCCCC(=O)OC[n+]1cccc(-c2c(COC(=O)NC(C)C)c(COC(=O)NC(C)C)c3n2CCC3)c1 | > 100 | > 100 | > 100 | > 71.1 | > 100 | > 100 | > 100 | > 100 | > 100 | > 100
4 | O=C(OC1OC2COC(=O)c3cc(O)c(O)c(O)c3-c3c(cc(O)c(O)c3O)C(=O)OC3C2OC(=O)[C@@]24CC(=O)[C@@](O)(OC25C(=O)O[C@H]2[C@@H](O)CO[C@@]25O)C2(O)Oc5c(O)c(O)cc(c5C24)C(=O)OC13)c1cc(O)c(O)c(O)c1 (stereo not given in full) | > 100 | > 100 | > 100 | > 100 | > 100 | > 100 | > 100 | > 100 | > 100 | 18.5
5 | CC1OC(OC2C(OC(=O)[C@]34CCC(C)(C)C[C@H]3C3=CC[C@@H]5[C@@]6(C)CC[C@H](OC7OC(CO)C(O)C(O)C7OC7OC(CO)C(O)C(O)C7O)C(C)(C)[C@@H]6CC[C@@]5(C)[C@]3(C)CC4)OCC(O)C2O)C(O)C(O)C1OC1OCC(O)C(O)C1O (stereo not given in full) | 19.8 | 26.2 | 19.2 | 46.3 | 23.7 | 31.9 | 31 | 24 | 44.8 | 22.2
6 | C=CCN(c1cc(O)c2c(c(C)cn2S(=O)(=O)c2ccccc2)c1[N+](=O)[O-])S(C)(=O)=O | > 100 | > 100 | > 100 | > 100 | > 100 | > 100 | > 100 | > 100 | > 100 | > 100
7 | Cc1ccc2c(=O)cc(-c3cc(C)sc3C)[nH]c2n1 | 32.9 | 7.62 | > 39.3 | > 77.6 | > 100 | > 82.7 | > 29.9 | > 100 | > 69 | 65.8
8 | Cc1nc2ccc(N=Nc3c(C)noc3C)cc2[nH]1 | 71.1 | > 100 | > 100 | 58.5 | > 100 | 56.7 | 32.9 | > 100 | 91.4 | 96.6
9 | N/C(CCSCCSCC/C(N)=N\O)=N\O | > 100 | > 100 | > 100 | > 100 | > 100 | > 100 | > 100 | > 100 | > 100 | > 100
10 | Nc1ccc2c(=S)c3ccccc3[nH]c2c1 | > 100 | > 100 | > 100 | > 84.4 | > 100 | 98.5 | > 100 | > 100 | > 100 | > 100
11 | CC(=O)Oc1ccc(-c2nnc(-c3ccc(OC(C)=O)cc3)nn2)cc1 | > 100 | > 100 | > 100 | > 100 | > 100 | > 100 | > 100 | > 100 | > 100 | > 100
12 | CC(C)=CCC[C@@H](C)C1=C(N)C(O)=C(C)C(=O)C1=O | > 48 | > 75 | > 75 | > 67.5 | > 75 | > 75 | > 75 | > 75 | > 75 | > 75
13 | Cc1cccc(C)c1NC(=O)C(=O)CC(=O)c1sc(Nc2c(C)cccc2C)nc1C | > 100 | > 100 | > 100 | > 100 | > 100 | > 100 | > 100 | > 100 | > 100 | > 100
14 | NC(CCC(=O)O)C(=O)NC(Cc1ccc(N(CCCl)CCCl)cc1)C(=O)O (stereo not given) | > 100 | > 100 | > 100 | > 100 | > 100 | > 100 | > 100 | > 100 | > 100 | > 100
15 | S=c1[nH]nc(Cn2c3ccc(Br)cc3c3nc4ccccc4nc32)o1 | > 100 | > 100 | 59.3 | 60.5 | > 100 | > 100 | > 100 | > 100 | > 100 | > 100
16 | COC(=O)[C@@H]1Cc2ccc(OC)c(c2)OCCC(=O)N1 | > 100 | > 100 | > 100 | > 100 | > 100 | > 100 | > 100 | > 100 | > 100 | > 100
